# Patent US20060045953A1 (priority 2004, published 2006)
# Biological target: T1, hT1R1/hT1R3 umami receptor (Homo sapiens, UniProt Q7RTX0+Q7RTX1)
# T1 construct: expressed in transfected cells; host or cells: HEK293 derivative stably expressing Gα15, clone I-17, expression induced with mifepristone
# T1 sequence (Q7RTX1 21-841): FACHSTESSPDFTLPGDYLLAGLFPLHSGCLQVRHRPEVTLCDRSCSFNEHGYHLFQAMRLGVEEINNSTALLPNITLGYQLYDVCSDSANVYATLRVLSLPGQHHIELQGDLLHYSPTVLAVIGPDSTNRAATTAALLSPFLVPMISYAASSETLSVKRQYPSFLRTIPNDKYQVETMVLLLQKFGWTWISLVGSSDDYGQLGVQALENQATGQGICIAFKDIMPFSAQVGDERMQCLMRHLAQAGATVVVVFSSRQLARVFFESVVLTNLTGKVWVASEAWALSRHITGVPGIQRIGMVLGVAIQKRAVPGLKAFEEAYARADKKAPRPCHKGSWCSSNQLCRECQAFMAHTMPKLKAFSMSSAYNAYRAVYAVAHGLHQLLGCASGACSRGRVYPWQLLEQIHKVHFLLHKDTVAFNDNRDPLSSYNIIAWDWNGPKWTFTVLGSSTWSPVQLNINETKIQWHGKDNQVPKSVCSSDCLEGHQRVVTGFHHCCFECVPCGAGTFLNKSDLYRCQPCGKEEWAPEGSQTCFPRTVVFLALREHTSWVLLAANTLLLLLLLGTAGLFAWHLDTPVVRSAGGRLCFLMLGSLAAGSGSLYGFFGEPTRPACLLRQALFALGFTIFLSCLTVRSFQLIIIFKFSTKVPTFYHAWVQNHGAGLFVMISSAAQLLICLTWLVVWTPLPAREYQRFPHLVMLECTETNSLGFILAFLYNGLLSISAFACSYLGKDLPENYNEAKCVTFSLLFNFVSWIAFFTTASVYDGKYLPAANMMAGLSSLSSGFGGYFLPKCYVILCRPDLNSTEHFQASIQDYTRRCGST
# T1 sequence (Q7RTX0 21-852): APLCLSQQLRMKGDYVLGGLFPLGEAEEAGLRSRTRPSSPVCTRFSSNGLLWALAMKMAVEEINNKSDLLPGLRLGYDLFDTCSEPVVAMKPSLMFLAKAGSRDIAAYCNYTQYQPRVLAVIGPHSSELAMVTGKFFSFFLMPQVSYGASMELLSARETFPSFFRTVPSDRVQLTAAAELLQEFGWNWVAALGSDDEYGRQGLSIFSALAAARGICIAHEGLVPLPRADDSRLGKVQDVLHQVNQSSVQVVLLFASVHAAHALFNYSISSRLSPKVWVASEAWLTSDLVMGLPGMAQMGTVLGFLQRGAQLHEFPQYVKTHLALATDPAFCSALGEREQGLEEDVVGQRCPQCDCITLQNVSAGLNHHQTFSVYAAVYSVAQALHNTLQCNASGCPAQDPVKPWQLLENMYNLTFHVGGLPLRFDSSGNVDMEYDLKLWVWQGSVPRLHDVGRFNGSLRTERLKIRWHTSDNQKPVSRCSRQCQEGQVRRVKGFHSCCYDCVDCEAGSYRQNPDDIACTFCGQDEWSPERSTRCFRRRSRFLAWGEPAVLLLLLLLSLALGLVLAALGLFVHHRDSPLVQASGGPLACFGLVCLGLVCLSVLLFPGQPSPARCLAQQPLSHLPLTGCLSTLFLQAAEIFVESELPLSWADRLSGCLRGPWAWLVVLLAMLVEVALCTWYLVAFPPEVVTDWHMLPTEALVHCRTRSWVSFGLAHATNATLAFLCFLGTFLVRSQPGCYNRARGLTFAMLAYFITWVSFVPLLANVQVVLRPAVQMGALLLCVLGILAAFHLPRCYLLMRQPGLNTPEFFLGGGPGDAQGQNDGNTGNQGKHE
# Experiment: In vitro hT1R1/hT1R3 umami taste receptor activation assay (FLIPR, dose response)
# Type: cell-based
# Details: Table A, Umami Amides; read-out: Umami EC50
# Description: In order to identify new savory flavoring agents and enhancers, including compounds with savory agonist and enhancer activities (dual activity), the compounds of Formula (I) were screened in primary assays and secondary assays including compound dose response and enhancement assay. In a primary assay for potential ability to modulate umami taste, amide compounds of Formula (I) that can be either savory flavoring agents in their own right or flavor enhancers of MSG are identified and scores of their activities are given as percentage of the maximum MSG intensity (%). In compound dose response, an EC50 is calculated to reflect the potency of the compound as a savory agonist or enhancer.
# An HEK293 cell line derivative (See e.g., Chandrashekar, et al., Cell (2000) 100: 703-711) which stably expresses Gα15 and hT1R1/hT1R3 under an inducible promoter (see WO 03/001876 A2) was used to identify compounds with savory tasting properties.
# For dose-responses analysis, stimuli were presented in duplicates at 10 different concentrations ranging from 1.5 nM to 30 μM. Activities were normalized to the response obtained with 60 mM monosodium glutamate, a concentration that elicits maximum receptor response. […] Identical results were obtained when analyzing the dose-response data using commercially available software for non-linear regression analysis such as GraphPad PRISM (San Diego, Calif.).
row,EC50 [nM],SMILES
1,400,"COC(=O)C(CC(C)C)NC(=O)c1cc2ccccc2s1 (stereo in doubt) [Example A4, 2-[(Benzo[b]thiophene-2-carbonyl)-amino]-4-methyl-pentanoic acid methyl ester]"
2,310,"COC(=O)C(CC(C)C)NC(=O)c1cc2ccccc2o1 (stereo in doubt) [Example A5, 2-[(Benzofuran-2-carbonyl)-amino]-4-methyl-pentanoic acid methyl ester]"
3,320,"COC(=O)C(CC(C)C)NC(=O)c1cc2cc(OC)ccc2o1 (stereo in doubt) [Example A6, 2-[(5-Methoxy-benzofuran-2-carbonyl)-amino]-4-methyl-pentanoic acid methyl ester]"

# Same assay, conditions: opposite enantiomers compared; read-out: AFFINITY FOR T1R1/T1R3 SAVORY RECEPTOR EC50 UM
row,EC50 [nM],SMILES
1,10,COc1cccc(C(=O)N[C@H]2CCCc3ccccc32)c1N
2,4530,"CCOc1ccc(C(=O)N[C@@H]2CCc3ccccc32)cc1C [(R)-N-(2,3-dihydro-1H-inden-1-yl)-4-ethoxy-3-methylbenzamide]"
3,2130,"COc1ccc(C(=O)N[C@@H]2CCc3ccccc32)cc1C [(R)-N-(2,3-dihydro-1H-inden-1-yl)-4-methoxy-3-methylbeuzamide]"

# Same assay, conditions: read-out: EC50 for activation of a hT1R1/hT1R3 umami receptor expressed in an HEK293 cell line
row,EC50 [nM],SMILES
1,80,"COc1ccc2c(c1)CCC2NC(=O)c1ccc(OC)c(C)c1 (racemic) [Example 121-2, (R/S)-4-Methoxy-N-(5-methoxy-2,3-dihydro-1H-inden-1-yl)-3-methylbenzamide]"
2,220,"CCCC(CC(C)C)NC(=O)c1ccc2c(c1)OCO2 (stereo not drawn) [Example 2, N-(2-methylheptan-4-yl)benzo[d][1,3]dioxole-5-carboxamide]"
3,610,"CCCC(NC(=O)c1ccc2c(c1)OCO2)C(C)C (stereo not drawn) [Example 3, N-(2-methylhexan-3-yl)benzo[d][1,3]dioxole-5-carboxamide]"
4,450,"CC1CCCC(NC(=O)c2ccc3c(c2)OCO3)C1C (stereo not drawn) [Example 4, N-(2,3-dimethylcyclohexyl)benzo[d][1,3]dioxole-5-carboxamide]"
5,570,"CCC(CC(C)C)NC(=O)c1ccc2c(c1)OCO2 (stereo not drawn) [Example 5, N-(5-methylhexan-3-yl)benzo[d][1,3]dioxole-5-carboxamide]"
6,710,"O=C(NC1CCCc2ccccc21)c1ccc2c(c1)OCO2 (stereo not drawn) [Example 7, N-(1,2,3,4-tetrahydronaphthalen-1-yl)benzo[d][1,3]dioxole-5-carboxamide]"
7,9000,"CC(C)C[C@H](CO)NC(=O)c1ccc2c(c1)OCO2 [Example 8, (R)-N-(1-hydroxy-4-methylpentan-2-yl)benzo [d][1,3]dioxole-5-carboxamide]"
8,3500,"COC[C@@H](CC(C)C)NC(=O)c1ccc2c(c1)OCO2 [Example 9, (R)-N-(1-methoxy-4-methylpentan-2-yl)benzo[d][1,3]dioxole-5-benzo[d][1,3]dioxole-5-carboxylic acid]"
9,1160,"COC(=O)[C@H](NC(=O)c1ccc2c(c1)OCO2)C(C)C [Example 10, (R)-methyl 2-(benzo[d][1,3]dioxole-6-carboxamido)-3-methylbutanoate]"
10,10900,"CC(C)CC(COP(=O)(O)O)NC(=O)c1ccc2c(c1)OCO2 (stereo not drawn) [Example 11, 2-(benzo[d][1,3]dioxole-6-carboxamido)-4-methylpentyl dihydrogen phosphate]"
11,120,"CCCC(CC)NC(=O)c1ccc(OC)c(C)c1 (stereo not drawn) [Example 12, N-(hexan-3-yl)-4-methoxy-3-methylbenzamide]"
12,1060,"CC(C)C[C@@H](NC(=O)c1ccc2c(c1)OCO2)C(=O)N(C)C [Example 13, (R)-N-(1-(dimethylamino)-4-methyl-1-oxopentan-2-yl) benzo[d][1,3]dioxole-5-carboxamide]"
13,11900,"CCCC(COC(C)=O)NC(=O)c1ccc2c(c1)OCO2 (stereo not drawn) [Example 14, 2-(benzo[d][1,3]dioxole-6-carboxamido)pentyl acetate]"
14,1700,"CC(C)C[C@@H](NC(=O)c1ccc2c(c1)OCO2)C(=O)NCCc1cccnc1 [Example 15, (R)-N-(4-methyl-1-oxo-1-(2-(pyridin-3-yl)ethylamino)pentan-2-yl)benzo[d][1,3]dioxole-5-carboxamide]"
15,3000,"CC(C)C[C@@H](NC(=O)c1ccc2c(c1)OCO2)C(=O)N1CCCC1CO (stereo partly drawn) [Example 16, N-((R)-1-(2-(hydroxymethyl)pyrrolidin-1-yl)-4-methyl-1-oxopentan-2-yl)benzo[d][1,3]dioxole-5-carboxamide]"
16,110,"CCCC(CCC)NC(=O)c1cc2c(cc1C)OCO2 [Example 17, N-(heptan-4-yl)-6-methylbenzo[d][1,3]dioxole-5-carboxamide]"
17,100,"CCCC(CCC)NC(=O)c1ccc2c(c1)OC(C)O2 (stereo not drawn) [Example 18, N-(heptan-4-yl)-2-methylbenzo[d][1,3]dioxole-5-carboxamide]"
18,14000,"CCCC(CCC)NC(=O)c1ccc2c(c1)OC(CC(=O)OCC)O2 (stereo not drawn) [Example 19, Ethyl 2-(5-(heptan-4-ylcarbamoyl)benzo[d][1,3]dioxol-2-yl)acetate]"
19,2700,"CCCC(CCC)NC(=O)c1ccc2c(c1)OC(C)(C)O2 [Example 20, N-(heptan-4-yl)-2,2-dimethylbenzo[d][1,3]dioxole-5-carboxamide]"
20,11500,"CCCC(CCC)NC(=O)c1ccc2c(c1)OC(C(C)C)O2 (stereo not drawn) [Example 21, N-(heptan-4-yl)-2-isopropylbenzo[d][1,3]dioxole-5-carboxamide]"
21,1510,"CCCC(CCC)NC(=O)c1ccc2c(c1)OC(F)(F)O2 [Example 22, 2,2-difluoro-N-(heptan-4-yl)benzo[d][1,3]dioxole-5-carboxamide]"
22,490,"CCCC(CCC)NC(=O)c1ccc2c(c1)OCCO2 [Example 23, 2,3-Dihydro-benzo[1,4]dioxine-6-carboxylic acid (1-propyl-butyl)-amide]"
23,6400,"CCCC(CCC)NC(=O)c1ccc2c(c1)OCCCO2 [Example 24, N-(heptan-4-yl)-3,4-dihydro-2H-benzo[b][1,4]dioxepine-7-carboxamide]"
24,880,"CCCC(CCC)NC(=O)c1cc2ccccc2o1 [Example 25, benzofuran-2-carboxylic(1-propylbutyl)amide]"
25,110,"COC(=O)[C@@H](CC(C)C)NC(=O)c1cc2cc(C)ccc2o1 [Example 27, (R)-methyl 4-methyl-2-(5-methylbenzofuran-2-carboxamido)pentanoate]"
26,740,"CCCC(CC)NC(=O)c1cc2cc(C)ccc2o1 (stereo not drawn) [Example 28, N-(hexan-3-yl)-5-methylbenzofuran-2-carboxamide]"
27,400,"CCCC(CC)NC(=O)c1cc2cc(OC)ccc2o1 (stereo not drawn) [Example 29, N-(hexan-3-yl)-5-methoxybenzofuran-2-carboxamide]"
